The source of these data is article PMC2891903 (The Journal of nutritional biochemistry, 2010).

SMILES strings stand for the structures.

In this assay the target is T1, vitamin D receptor (VDR) (Homo sapiens, UniProt P11473).
T1 sequence (P11473 1-427): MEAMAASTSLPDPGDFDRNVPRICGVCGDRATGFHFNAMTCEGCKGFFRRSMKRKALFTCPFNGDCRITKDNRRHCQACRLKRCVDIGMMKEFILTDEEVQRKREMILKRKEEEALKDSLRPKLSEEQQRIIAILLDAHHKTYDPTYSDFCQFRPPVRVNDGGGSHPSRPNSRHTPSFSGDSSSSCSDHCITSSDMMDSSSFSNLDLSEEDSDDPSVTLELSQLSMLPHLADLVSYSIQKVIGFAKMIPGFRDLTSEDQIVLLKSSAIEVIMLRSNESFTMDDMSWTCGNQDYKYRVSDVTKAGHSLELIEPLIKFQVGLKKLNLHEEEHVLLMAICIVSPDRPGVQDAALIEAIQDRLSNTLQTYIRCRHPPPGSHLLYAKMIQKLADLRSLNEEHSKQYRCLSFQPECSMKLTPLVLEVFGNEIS
T1 sequence (P19793 1-462 partner): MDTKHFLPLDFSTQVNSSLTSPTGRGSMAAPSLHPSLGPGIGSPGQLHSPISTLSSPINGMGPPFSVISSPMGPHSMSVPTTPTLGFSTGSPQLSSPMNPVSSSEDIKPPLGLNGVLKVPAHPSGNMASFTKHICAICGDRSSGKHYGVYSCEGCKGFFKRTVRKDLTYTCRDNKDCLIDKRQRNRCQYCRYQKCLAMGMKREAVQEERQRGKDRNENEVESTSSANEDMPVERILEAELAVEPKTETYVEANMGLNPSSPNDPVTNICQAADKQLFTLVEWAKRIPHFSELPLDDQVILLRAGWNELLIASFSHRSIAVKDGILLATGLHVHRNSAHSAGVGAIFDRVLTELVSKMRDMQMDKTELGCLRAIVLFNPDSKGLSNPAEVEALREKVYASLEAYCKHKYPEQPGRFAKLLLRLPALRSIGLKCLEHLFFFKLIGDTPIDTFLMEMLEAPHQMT
In words: competitive displacement of [3H][…] from VDR in transfected COS-7 lysate. The class given is binding. A general note: Displacement assays read how much labelled ligand stays bound in the presence of the test substance.

As to `COc1cc(/C=C/C(=O)CC(=O)/C=C/c2ccc(O)c(OC)c2)ccc1O` [CM, curcumin], the inhibition constant Ki worked out at 2.9 µM.

What is called Ki is a measure of affinity in units of concentration, obtained from inhibition or displacement. Low values mean higher affinity, high ones lower affinity.
